Measurements from patent US20250152504A1, “INTRAUTERINE SYSTEMS COMPRISING ANTI-INFECTIVES FOR STEADY-STATE ACCUMULATION TO DISTAL EXTRAUTERINE TISSUE” (priority 2023, published 2025).
Values after ≈ are worked out from the molar mass of the structure shown.

Assays:
physchem = type: physicochemical; details: 37 °C, aqueous with cosolvent or surfactant or cyclodextrin, thermodynamic from solid
From the text: FIGS. 6A-6C are graphs showing differential dapivirine release driven by polymer crystallinity and water penetration, in accordance with the present technology.

[1] = type: in vivo; details: baboon, about one month of intrauterine instillation
From the text: Animals were monitored for signs of discomfort including decreased appetite, lethargy, and hunched posture. Tissue biopsies for histological analysis were fixed in 4% paraformaldehyde, dehydrated in alcohol, and embedded in paraffin. Cross sectional samples (5 μm) were taken and stained with hematoxylin and eosin (H&E) stain.
Vaginal tissue biopsies taken pre-insertion and 28-days post-insertion show characteristic features of healthy a vaginal epithelium, including a multilayered stratified squamous epithelium consisting of enucleated cells, a densely nucleated basal cell layer, and an inconspicuous lamina propria. Vaginal tissue biopsied 28-days post insertion has an intact stratified squamous epithelium that measures approximately 200 μm thick. Both pre-insertion and 28-days post-insertion cervical biopsies contain regions of a single columnar epithelium, while the underlying cervical stroma is composed of densely vascularized, fibromuscular tissue. The 28-day post-insertion cervical biopsy contains a thick stratus corneum of the exocervix; the epithelium overlays a prominent lymphoid aggregate, a feature of mucosa-associated lymphoid tissue (MALT) in the type I mucosa of the endocervix. Some cellular atypia is notable as a few epithelial cells display irregular nuclear membranes and perinuclear halos. […]

[2] = type: physicochemical
From the text: Both polyether sheath reservoirs (R1 & R2) released DPV faster than polycarbonate sheath reservoirs (R3 & R4). […] Thus, with DPV loaded at 1 wt % which is below the saturation solubility, these reservoirs contain a nonconstant activity source. Pursuant to the behavior of reservoirs with a nonconstant activity source, these reservoirs released drug following first-order release kinetics. Despite this expectation, drug release from all four reservoir devices was described slightly better by a square-root of time dependence.

[3] = In vitro release of 1% dapivirine from ethylene-vinyl acetate polymers; type: physicochemical; details: 1% DPV in EVA, within 720 hours
From the text: Ethylene-vinyl acetate polymers (EVA) were also investigated for the use in the intrauterine systems described herein. FIGS. 19A-19B are graphs showing release for dapirivine (DPV) in ethylene-vinyl acetate polymers (EVAs), in accordance with the present technology.

[4] = cited from earlier work
HIV-1 = details: cited from earlier work
[5] = In vitro drug release from TPU matrix delivery system prototypes; type: physicochemical; details: for Predicted T50%: from best-fit release model
Procedure: Films were cut into disks with a 1-inch diameter die punch; disks were stacked and placed between two pieces of aluminum foil and compressed under a metal weight on a 120° C. dry bath. Thickness was monitored frequently until it measured 3.5 mm with digital calipers calibrated to 0.01 mm. Devices were cut from thick films using a custom rectangular 3.5 mm×13.3 mm die punch.
All release tests were performed in sink conditions in PBS supplemented with 2% w/v Cremophor® A25/Emulgin® B25. For the first 7-days of drug release testing, 1 mL samples were taken daily; following 7 days, samples were taken every 3-4 days. At all timepoints, bottles were drained and replaced with fresh media following sampling.
A qualification for selecting an optimal TPU for DPV delivery in this application is the time to achieve 50% cumulative release of drug. This is based on the standard use time of hormonal IUDs, which in practice are removed once about half of the initial load of drug is depleted from the device. Here, this standard was used as a benchmark to evaluate the sustained release properties of candidate delivery system designs. […] The fit of first-order release kinetics to the data was assessed. Equations 1 and 2 describe drug release from a system where dissolution is dependent on a concentration gradient.
Where k is the first order rate constant, Ct is the concentration of drug in solution at time t and C0 is the initial concentration of drug.
Where Q is the amount of drug release in time t and kh is the Higuchi release constant.
Based on the best-fit square-root of time relation, T50% was calculated for each TPU. […] Korsmeyer and Peppas provided a method for understanding drug release mechanisms of swelling and non-swelling polymeric systems, given by Equation 4: […]
Where Mt/M∝ is the fraction of drug released at time t, K is the rate constant, and n is the release exponent.

## Cc1cc(C)c(Nc2ccnc(Nc3ccc(C#N)cc3)n2)c(C)c1 [DPV, dapivirine]
physchem
  solubility: 164 ± 9.4 µg/mL (≈ 497 µM)
[1]
  tolerability / histological findings: likely safe and well-tolerated in baboons
[2]
  saturation solubility of DPV in a PY-PT43DE20 core: 5.46±0.93 wt %
[3]
  cumulative release of loaded DPV: about 80%
[4]; in vivo
  Cmax: 0.355 ng/mL
  treatment-emergent adverse events: no treatment-emergent adverse events were observed
[4]; oral DPV administration
  plasma concentration required to reduce viral load: 100 to 200 ng/mL
HIV-1; at 1 nM (0.33 ng/mL)
  inhibition of provirus formation: 99%
HIV-1; at 10 nM (3.3 ng/mL)
  infection prevented (dissemination of HIV-1 by CD4+ dendritic cells): 90%
HIV-1; concentration with which tissue explants were treated
  IC90 in cervicovaginal tissue: 3.3 ng/mL (≈ 0.01 µM)
HIV-1; ex vivo viral inhibition model
  lowest concentration inhibiting productive infection of ectocervical tissue: 0.1 nM
[5]; 1 wt % DPV, all four TPUs, within target range
  DPV dose released per day: 10 to 50 µg/day
[5]; 1 wt % loading, TPU1 matrix
  Actual T50%: 12 days
  First-Order: k: 0.002, h^−1
  Higuchi: kH: 0.029, %/h^1/2
  Korsmeyer-Peppas Constant: n: 0.525,
  Predicted T50%: 12 days
[5]; 1 wt % loading, TPU2 matrix
  Actual T50%: 12 days
  First-Order: k: 0.002, h^−1
  Higuchi: kH: 0.027, %/h^1/2
  Korsmeyer-Peppas Constant: n: 0.549,
  Predicted T50%: 13.5 days
[5]; 1 wt % loading, TPU3 matrix
  Actual T50%: 7 days
  First-Order: k: 0.004, h^−1
  Higuchi: kH: 0.038, %/h^1/2
  Korsmeyer-Peppas Constant: n: 0.662,
  Predicted T50%: 7 days
[5]; 1 wt % loading, TPU4 matrix
  First-Order: k: 0.0007, h^−1
  Higuchi: kH: 0.017, %/h^1/2
  Korsmeyer-Peppas Constant: n: 0.614,
  Predicted T50%: 36 days
[5]; 1 wt %, TPU3 matrix, by 30 days / one month
  cumulative release of encapsulated drug: approximately 95%
[5]; 16.6 wt % loading, TPU4 matrix
  First-Order: k: 0.0005 h⁻¹
  Higuchi: kH: 0.014, %/h^1/2
  Predicted T50%: 53.5 days
[5]; 16.6 wt %, TPU4 matrix, after 30 days
  cumulative release of loaded drug: approximately 33.5%
[5]; 16.6 wt %, TPU4 matrix, final rate at 30 days, per each ⅓ segment of the device
  release rate: approximately 62.56 μg/day
